The target of assay [1] is T1, TcFPPS (Trypanosoma cruzi farnesyl diphosphate synthase) (Trypanosoma cruzi, UniProt Q8WS26).
T1 sequence (Q8WS26 64-425): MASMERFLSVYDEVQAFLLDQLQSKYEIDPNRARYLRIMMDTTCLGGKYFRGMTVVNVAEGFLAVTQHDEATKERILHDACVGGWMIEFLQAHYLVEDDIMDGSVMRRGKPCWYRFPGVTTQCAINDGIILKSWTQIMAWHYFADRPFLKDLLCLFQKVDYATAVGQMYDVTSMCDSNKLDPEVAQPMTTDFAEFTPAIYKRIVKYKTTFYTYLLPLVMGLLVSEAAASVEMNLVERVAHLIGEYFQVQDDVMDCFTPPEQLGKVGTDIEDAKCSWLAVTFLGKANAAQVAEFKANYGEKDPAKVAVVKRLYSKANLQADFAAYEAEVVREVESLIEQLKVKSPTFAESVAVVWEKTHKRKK
Put plainly: Isothermal titration calorimetry of bisphosphonate binding to TcFPPS. As to conditions: ITC, 28 °C; for ΔG / ΔH / ΔS: single binding site per monomer. In general terms: ITC needs no label: the signal is the heat of the interaction.

The subject of a further assay is TcFPPS. As to conditions: TcFPPS enzymatic activity; IC50 were calculated before; cited from earlier work.
The next assay deals with T. cruzi. To be noted: in vivo assays; cited from earlier work.

As a reminder, the IC50 is the point on the concentration scale where inhibition reaches its midpoint.

In assay [1], `CCCCCCCNCC(P(=O)(O)O)P(=O)(O)O` [Compound 13, [2-(n-heptylamino)ethane-1,1-diyl]bisphosphonic acid] yielded a ΔG of -9.88 kcal/mol, a ΔH of 5.65 ± 0.09 kcal/mol and a ΔS of 51.9 cal/mol/K. The “ΔH, 2-site model, first value” in assay [1] (values calculated using 2-site model (two different sites per dimer), first site) is 6.39 ± 0.36 kcal/mol. For the same compound, the “ΔH, 2-site model, second value” in assay [1] (values calculated using 2-site model (two different sites per dimer), second site) is 4.62 ± 0.44 kcal/mol. In addition, in the assay with TcFPPS, the half-inhibitory concentration (IC50) is 58 nM.
Turning to `CCCCCNCC(P(=O)(O)O)P(=O)(O)O` [Compound 11, [2-(n-pentylamino)ethane-1,1-diyl]bisphosphonic acid], in assay [1], the ΔG was -8.15 kcal/mol, the ΔH is given as 5.22 ± 0.11 kcal/mol and the ΔS is recorded as 44.7 cal/mol/K. Also, the half-maximal inhibitory concentration (IC50) in the assay with TcFPPS was 1840 nM.
In the case of `O=P(O)(O)C(CNC1CCCCC1)P(=O)(O)O` [Compound 14, [2-(cyclohexylamino)ethane-1,1-diyl]bisphosphonic acid], the IC50 in the assay with TcFPPS is 13 nM.
In assay [1], `CCCCCCNCC(P(=O)(O)O)P(=O)(O)O` [Compound 12, [2-(n-hexylamino)ethane-1,1-diyl]bisphosphonic acid] returned a ΔG of -8.72 kcal/mol, a ΔH of 7.87 ± 0.11 kcal/mol and a ΔS of 55.4 cal/mol/K. Further, the “unfavorable binding enthalpy, excess over the other inhibitors” value in assay [1] (compared with the other n-alkyl inhibitors) was 1.5 to 2.0 kcal/mol. In the assay with TcFPPS, the IC50 was 490 nM.
`CCCNCC(P(=O)(O)O)P(=O)(O)O` [Compound 10, [2-(n-propylamino)ethane-1,1-diyl]bisphosphonic acid]: in assay [1], the ΔG is -10.43 kcal/mol, the ΔH was found to be 6.35 ± 0.07 kcal/mol and the ΔS is given as 56.1 cal/mol/K. Moreover, in the assay with TcFPPS, the IC50 was 38 nM.
`O=P(O)(O)C(O)(Cc1cccnc1)P(=O)(O)O` [risedronate]: the “survival of T. cruzi-infected mice” value with T. cruzi was “significantly increase survival”.

Source of the values: article PMC4710095 (Journal of medicinal chemistry, 2012).
